In patent publication US4628059A, “Dopamine-β-hydroxylase inhibitors” (SmithKlein Beckman Corporation, priority 1985, dated 1986):
Read-outs that look alike come from different tables or passages of the source.

Legend:
[1] = biological target: T1, dopamine-β-hydroxylase (DBH) (Bos taurus, UniProt P15101); assay: in vitro DBH inhibition (conversion of tyramine to octopamine, spectrophotometric at 330 nm); type: biochemical
T1 sequence (P15101 1-610): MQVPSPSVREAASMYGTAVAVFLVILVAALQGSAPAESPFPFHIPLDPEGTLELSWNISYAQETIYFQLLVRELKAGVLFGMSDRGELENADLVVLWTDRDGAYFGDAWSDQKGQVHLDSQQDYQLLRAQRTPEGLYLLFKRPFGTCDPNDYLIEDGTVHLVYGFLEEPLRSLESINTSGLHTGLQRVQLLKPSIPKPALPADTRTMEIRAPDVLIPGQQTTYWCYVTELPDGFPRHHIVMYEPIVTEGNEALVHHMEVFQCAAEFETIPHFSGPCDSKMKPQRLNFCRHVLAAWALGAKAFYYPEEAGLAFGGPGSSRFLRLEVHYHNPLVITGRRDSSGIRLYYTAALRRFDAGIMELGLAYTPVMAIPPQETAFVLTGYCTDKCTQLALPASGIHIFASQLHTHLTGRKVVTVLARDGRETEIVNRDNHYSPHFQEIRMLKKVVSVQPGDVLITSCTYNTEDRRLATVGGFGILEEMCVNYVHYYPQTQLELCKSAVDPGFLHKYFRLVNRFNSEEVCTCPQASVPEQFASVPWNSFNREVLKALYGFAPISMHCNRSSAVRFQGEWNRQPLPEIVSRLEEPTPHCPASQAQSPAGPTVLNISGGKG
Protocol: Because the compounds of Formulae I and II inhibit DBH activity, they have therapeutic value as diuretic, natriuretic, cardiotonic, antihypertensive and vasodilator agents, as well as antiulcerogenic agents. Listed in Table I are the compounds of the invention and compounds included in the pharmaceutical compositions of the invention and useful in the methods of the invention that were tested for in vitro DBH inhibition by a standard procedure for assaying conversion of tyramine to octopamine in the presence of DBH. J. J. Pisano, et al., Biochem. Biophys. Acta; 43, 566-568 (1960). Octopamine was assayed following sodium periodate oxidation to p-hydroxybenzaldehyde by measuring spectrophotometric absorbance at 330 nm. In Table I, inhibition is given in molar concentration of compound at which DBH activity was halved (IC50). Melting points (mp) are given in °C.

[2] = test system: peripheral dopamine (DA) and norepinephrine (NE) levels; assay: effect in vivo on peripheral dopamine (DA) and norepinephrine (NE) levels; parameters: species or system spontaneously hypertensive rats; details: oral, two doses approx. 18 h apart, sacrificed about 2 h after second dose, fusaric acid 50 mg/kg; for DA / NE: average of groups of five; for DA: control (saline) 0.314; for DA / DA/NE Ratio: * p <.001 for both compounds; for NE: control (saline) 9.98; for DA/NE Ratio: control (saline) 0.0314
Protocol: One of the compounds of the invention was tested for its effect in vivo on peripheral dopamine (DA) and norepinephrine (NE) levels substantially by the procedure of DaPrada and Zurcher, Life Sciences, 19, 1161, (1976). Groups of five spontaneously hypertensive rats were dosed orally, twice, the second dose approximately 18 hours after the first, and were sacrificed about 2 hours after the second dose.

[3] = test system: spontaneously hypertensive rats; assay: mean arterial blood pressure in spontaneously hypertensive rats; type: in vivo; details: 50 mg/kg intraperitoneally, monitored for 260 minutes, tail artery cannulae
Protocol: Further, spontaneously hypertensive rats were dosed with a suspension or solution of 4-(3'-fluorobenzyl)-1,2,4-triazole-3-thiol at a dose of 50 mg/kg intraperitoneally, and mean arterial blood pressure was monitored for 260 minutes using indwelling cannulae positioned in the tail arteries.

[4] = test system: DBH; details: literature, cited from earlier work
[5] = Ehrreich et al., literature; cited from earlier work
[6] = literature; cited from earlier work
[7] = in vitro, tyramine to octopamine conversion, read-out: IC50 (molar concentration of compound at which DBH activity was halved)

| Compound | IC50 [1, 7] [µM] | DBH inhibition (in words) [4] | further results |
| --- | --- | --- | --- |
| Oc1c(F)cc(Cn2cnnc2S)cc1F [4-(3',5'-difluoro-4'-hydroxybenzyl)-1,2,4-triazole-3-thiol] | 0.02 |  |  |
| COc1c(F)cc(Cn2cnnc2S)cc1F [4-(3',5'-difluoro-4'-methoxybenzyl)-1,2,4-triazole-3-thiol] | 19 |  |  |
| Fc1cc(F)cc(Cn2cnnc2S)c1 [4-(3',5'-difluorobenzyl)-1,2,4-triazole-3-thiol] | 1 |  |  |
| Fc1cccc(Cn2cnnc2S)c1 [4-(3'-fluorobenzyl)-1,2,4-triazole-3-thiol] | 2.7 |  | DA [2]: 0.958 µg/g; NE [2]: 8.46 µg/g; DA/NE Ratio [2]: 0.114; mean arterial blood pressure reduction compared to vehicle-treated controls [3]: statistically significant blood pressure reductions at 60, 140, 160, 200, and 240 minutes |
| Sc1nncn1Cc1ccccc1 [4-benzyl-1,2,4-triazole-3-thiol] | 24 |  |  |
| O=C(O)c1ccc(CCC(Br)CBr)cn1 (stereo not shown) [5-(3,4-dibromobutyl)picolinic acid] |  | DBH inhibitors |  |
| O=C(O)c1ccc(CCCCCl)cn1 [5-(4-chlorobutyl)picolinic acid] |  | inhibit DBH |  |
| CN(C)C(=S)SCc1ccc(C(=O)O)nc1 [5-(dimethyldithiocarbamoylmethyl)picolinic acid] |  | DBH inhibitors |  |
| Nc1ccc(C(=O)O)nc1 [5-aminopicolinic acid] |  | inhibit DBH |  |
| CCCC(=O)c1ccc(C(=O)O)nc1 [5-butyroylpicolinic acid] |  | inhibit DBH |  |
| NNc1ccc(C(=O)O)nc1 [5-hydrazinopicolinic acid] |  | inhibit DBH |  |
| NOCc1ccccc1 [Benzyloxyamine, benzyloxyamine] |  | apparently act as competitive inhibitors |  |
| CCCCc1ccc(C(N)=O)nc1 [Bupicomide, 5-(n-butyl)picolinamine] |  | DBH inhibitor | antihypertensive activity [5]: antihypertensive activity |
| CCCCc1ccc(C(=O)O)nc1 [Fusaric acid] |  |  | DA [2]: 0.715 µg/g; NE [2]: 8.19 µg/g; DA/NE Ratio [2]: 0.0875; toxicity [6]: hepatotoxic; IC50 [1]: 0.8 µM |
| NNCc1ccccc1 [benzylhydrazine] |  | apparently act as competitive inhibitors |  |
| phenylpicolinic acid |  |  | DBH inhibitory activity relative to fusaric acid ([4]; Runti et al.): twice the inhibitory activity of fusaric acid |
